Test system: G proteins on NCI-H716 cells
Assay: Radiometric [35S]GTPγS binding assay with NCI-H716 cell membranes
Assay type: biochemical, human
Details: for GTPγS binding to G proteins as compared to non-specific binding (NSB): NCI-H716 cell membrane fractions, 10 μl 50 mM compound in 50 μl assay, 2 hours at 25° C.; for effect of added transducin on the level of GTPγS binding to G proteins: transducin 4 μg/50 μl assay added together with compound (FIG. 4C, 5C)
Protocol: [^35S] GTPγS binding assays were performed in triplicate in 96-well plates [see Northup et al., J. Biol. Chem., 257, 11416-23 (1982)]. To each well the following was added and allowed to incubate for 2 hours at 25° C.: […] of a 2× buffer (5 mM HEPES pH 7.8, 1 μM GTPγS, 4 μCi/ml [^35S]GTPγS); 10 μl 50 mM dextromethorphan or doxylamine; and 15 μl ([…]) NCI-H7-16 cell membranes or supernatant (supernatant from NCI-H716 cells spun at 900 g (S1), pellets from NCI-H716 cells spun at 900 g (P1), and pellets from NCI-H716 cells spun at 100,000 g (P2)). Where indicated, transducin was also added (4 μg/50 μl assay). The total assay volume per well was 50 μl.
To separate the free [^35S] GTPγS from the [^35S] GTPγS that bound to G proteins, 40 μl of the mixture was filtered using a pre-wet Millipore Multiscreen Filtration opaque 96-well plate (0.45 μm mixed cellulose acetate, #MHABN4550). The samples were washed three times with 0.2 ml ice-cold wash buffer (0.5 M Tris-HCl, 0.04 M-magnesium chloride 6H20, 1 M sodium chloride) using a Whatman Polyfiltronics manifold under pressure from a Gast vacuum pump (#DOA-P104 AA) set to 10 PSI. The rubber manifold of the Multiscreen plates was removed and the filters were allowed to dry under warm lights and a fan for 15 minutes.
The plates were then fitted with adapter plates (Packard #6005178) and 30 μl Microscint PS (#6013631) was added to each well. Next, the plates were heat sealed with Packard TopSeal-S sealing film (#6005161) using a Packard Micromate 496 heat sealer. Radioactivity bound to the filter plates was counted in a Packard Top Count NXT scintillation counter.

Row | SMILES | GTPγS binding to G proteins as compared to non-specific binding (NSB) | effect of added transducin on the level of GTPγS binding to G proteins | amount of compound needed to saturate NCI-H716 cell membranes in GTPγS binding (2 μg of NCI-H716 cell membranes (FIG. 6B)) [mM] | GTPγS binding to G proteins in the absence of transducin (NCI-H716 cell fractions, no transducin added (FIG. 4A))
1 | CN(C)CCOC(C)(c1ccccc1)c1ccccn1 (stereo not drawn) [doxylamine] | increase this binding | significantly increased the binding to G proteins |  | 
2 | COc1ccc2c(c1)[C@]13CCCC[C@@H]1[C@H](C2)N(C)CC3 [dextromethorphan] | increase this binding | little effect | 10 | increased the binding to G proteins
